Source: PubChem BioAssay (NCI)
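Interpolation was linear, between the two tested concentrations surrounding the appropriate level; five concentrations were tested over 48 hours in 96-well plates. At the GI50, growth is halved. At the TGI there is no net growth.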

Experiments:
Experiment in all cases: DTP human tumour cell line panel, 48 h; in the data active = GI50 below about 0.43 µM; inactive = the rest
UO-31 renal = test system: UO-31 renal
PC-3 prostate = test system: PC-3 prostate
HT29 colon = test system: HT29 colon
SF-539 CNS = test system: SF-539 CNS
SK-OV-3 ovarian = test system: SK-OV-3 ovarian
SW-620 colon = test system: SW-620 colon
LOX IMVI melanoma = test system: LOX IMVI melanoma
OVCAR-5 ovarian = test system: OVCAR-5 ovarian
CAKI-1 renal = test system: CAKI-1 renal
EKVX NSCLC = test system: EKVX NSCLC
MOLT-4 leukemia = test system: MOLT-4 leukemia
HOP-62 NSCLC = test system: HOP-62 NSCLC
T-47D breast = test system: T-47D breast
MDA-MB-231 breast = test system: MDA-MB-231 breast
A498 renal = test system: A498 renal
IGROV1 ovarian = test system: IGROV1 ovarian
ACHN renal = test system: ACHN renal
HCT-15 colon = test system: HCT-15 colon
HCC-2998 colon = test system: HCC-2998 colon
SK-MEL-5 melanoma = test system: SK-MEL-5 melanoma
CCRF-CEM leukemia = test system: CCRF-CEM leukemia
COLO 205 colon = test system: COLO 205 colon
MALME-3M melanoma = test system: MALME-3M melanoma
RXF 393 renal = test system: RXF 393 renal
NCI-H226 lung = test system: NCI-H226 lung
K-562 leukemia = test system: K-562 leukemia
DU-145 prostate = test system: DU-145 prostate
NCI/ADR-RES ovarian = test system: NCI/ADR-RES ovarian

O=[N+]([O-])c1ccc(-c2nnc(SCc3ccc(O)c4ncccc34)o2)cc1
active: GI50 (PC-3 prostate) 358 nM | GI50 (SK-OV-3 ovarian) 379 nM | GI50 (LOX IMVI melanoma) 334 nM | GI50 (ACHN renal) 360 nM | GI50 (HCT-15 colon) 333 nM | GI50 (SK-MEL-5 melanoma) 357 nM | GI50 (K-562 leukemia) 363 nM
69000 nM: TGI (T-47D breast)
> 100000 nM: TGI (PC-3 prostate) | TGI (HT29 colon) | TGI (SF-539 CNS) | TGI (SW-620 colon) | TGI (OVCAR-5 ovarian) | TGI (CAKI-1 renal) | TGI (EKVX NSCLC) | TGI (MOLT-4 leukemia) | TGI (HOP-62 NSCLC) | TGI (MDA-MB-231 breast) | TGI (IGROV1 ovarian) | TGI (ACHN renal) | TGI (HCT-15 colon) | TGI (HCC-2998 colon) | TGI (CCRF-CEM leukemia) | TGI (MALME-3M melanoma) | TGI (RXF 393 renal) | TGI (NCI-H226 lung) | TGI (K-562 leukemia) | TGI (DU-145 prostate) | TGI (NCI/ADR-RES ovarian)
> 39000 nM: TGI (LOX IMVI melanoma)
> 84500 nM: TGI (COLO 205 colon)
> 53000 nM: TGI (UO-31 renal)
inactive: GI50 (HT29 colon) 4840 nM | GI50 (SF-539 CNS) 877 nM | GI50 (SW-620 colon) 547 nM | GI50 (OVCAR-5 ovarian) 3710 nM | GI50 (CAKI-1 renal) 561 nM | GI50 (EKVX NSCLC) 746 nM | GI50 (MOLT-4 leukemia) 508 nM | GI50 (HOP-62 NSCLC) 590 nM | GI50 (T-47D breast) 923 nM | GI50 (MDA-MB-231 breast) 625 nM | GI50 (A498 renal) 2520 nM | GI50 (IGROV1 ovarian) 649 nM | GI50 (HCC-2998 colon) 749 nM | GI50 (CCRF-CEM leukemia) 451 nM | GI50 (COLO 205 colon) 4110 nM | GI50 (MALME-3M melanoma) 569 nM | GI50 (RXF 393 renal) 732 nM | GI50 (NCI-H226 lung) 3520 nM | GI50 (DU-145 prostate) 467 nM | GI50 (NCI/ADR-RES ovarian) 551 nM
> 30400 nM: TGI (A498 renal)
> 30600 nM: TGI (SK-MEL-5 melanoma)
3920 nM: TGI (SK-OV-3 ovarian)
